Assay results as given in patent publication US20150166646A1, “Methods and Compositions for Treating or Diagnosing Melanoma” (The Wistar Institute of Anatomy and Biology, priority 2012, published 2015).

Key:
[1] = system: melanoma cells co-cultured with macrophages; assay: Melanoma/macrophage transwell co-culture: growth (WST-1) and cell death; format: cell-based, human; conditions: for macrophage-mediated resistance of melanoma cells to BRAFi (cell growth, anti-cell death effect): co-culture with macrophages in presence of PLX4720, 3 days
[2] = system: 1205Lu and A375 melanoma cells; assay: Melanoma cell growth (WST-1) and cell death (Annexin V/7-AAD), cells cultured alone; format: cell-based, human
[3] = system: MAPK pathway (pERK) in melanoma cells; assay: Immunoblotting of MAPK signaling in melanoma cells; format: cell-based, human; conditions: VEGF 10 ng/ml and PLX4720 1 μM, 4 hours
Experimental: Macrophages and melanoma co-culture system was set up as described above. Melanoma cells were cultured same as Proliferation assay for 6 hours and were harvested for Immmunoblotting with following antibodies: phspho-ERK, total ERK, HSP90, phosphor-AKT, AKT, phosphor-NF-κB, phospho-CRAF, total CRAF, Phospho-ARAF, RAB11, Vinculin.
Cells were harvested for immunoblotting with antibodies to pERK, ERK, HSP90. VEGF increases the activation of MAPK pathway (FIG. 10C).
Relative cell growth and cell death were determined as above.

macrophages = assay: Macrophage growth (WST-1) and cell death; format: cell-based, human; conditions: 3 μM, 72 hours
1205Lu [4] = assay: Western blot of 1205Lu cells treated with PLX4720, GW2580, soluble M-CSFR with or without MCMI-Mφ; format: cell-based, human; conditions: 10 μM, 3 days, without MCMI-Mφ
1205Lu xenograft = 1205Lu xenograft tumor growth in nude mice; format: in vivo
Experimental: 5×10^5 1205Lu cells were subcutaneously injected to Nude mice (Female, 8 weeks old).
Tumor size was measured by a caliper. Tumor volume was calculated by the formula: Volume width×wide×length/2. The results are shown in the plot of FIG. 12A, plotting tumor volume vs. day.
Tumors from the experiment described immediately above were extracted and weighted after mice were euthanized. Tumor weight in grams was plotted vs. control or an agent defined along the x axis of FIG. 22A.
All studies were conducted under IACUC guidelines. 7 weeks old BALB/c female nude mice (National Cancer Institute) were injected subcutaneously with 1×10^61205Lu cells in 50% Matrigel (BD Biosciences) in both flanks of mice. When xenografts reached volumes of approximately 100 mm^3, mice were randomly grouped to four groups, with 5 animals per group. GW2580 was dissolved in 0.5% hydroxypropylmethylcellulose (Sigma-Aldrich, MO, USA) and 0.1% Tween 80, and was dosed orally at 160 mg/Kg once daily. […] Tumor volumes were measured every three days using a digital caliber and were calculated using the equation V=0.5×L×W^2. Mice tumors were weighted after mice were euthanized.
1205Lu cells were injected s.c into both flanks of nude mice. […] ANOVA was used to compare the differences in tumor volume. Mice were euthanized on day 14, peritoneal cells were harvested for flow cytometric analysis of the percent of F4/80 positive macrophages. Immunohistochemistry analysis of the expression of F4/80, phospho-ERK and Ki67 in tumors was conducted. The results are shown in FIGS. 12A-E. See, also the data in FIGS. 3B and 3C

[5] = system: peritoneal F4/80 positive macrophages; assay: Flow cytometric analysis of peritoneal macrophages of treated xenograft mice; format: in vivo; conditions: day 14
[6] = system: 1205Lu xenograft tumor tissues; assay: Immunohistochemistry of xenograft tumors (F4/80, phospho-ERK, Ki67); format: in vivo, mice; conditions: for Ki67 positive cells in tumor tissues / signaling of phospho-ERK in tumor tissues: compared to control mice; for F4/80 positive macrophages in tumors: day 14
1205Lu melanoma cells = assay: Matrigel Transwell invasion assay with 1205Lu-MΦ conditioned medium; format: cell-based, human; conditions: anti-CCL2 10 μg/ml
Experimental: The invasion assay was conducted with 24-well Transwell inserts (8 μm pore size; Corning). For the MCMI-MΦ-induced invasion assay, 4×10^5 1205Lu melanoma cells in 2% FBS RPMI1640 medium were added in the upper chamber precoated with 50 μl Matrigel (1:3 dilution, BD Biosciences). Media from 1205Lu-MΦ were added to the lower chamber, and R10 medium was used as a control. After overnight incubation, cells that had invaded
were fixed and stained with Diff-Quick staining kit (ThermoFisher). The stained cells in 4 randomly chosen fields were counted for each insert (200×). […]
We used a Matrigel Transwell assay and compared invasion of melanoma cells attracted to the supernatant of 1205Lu-MΦ alone or the supernatant with an anti-CCL2 monoclonal antibody and a pan-MMPs inhibitor GM6001 (see FIG. 7; see also FIG. 4(A)-(E) of Reference 11).

[7] = system: MAPK pathway in macrophages; assay: Immunoblotting of MAPK signaling in macrophages; format: cell-based, human; conditions: 2 hours; accompanied by phosphorylation of CRAF
Experimental: For macrophages, after monocytes were differentiated to the macrophages, cells in 2% FBS melanoma media were seeded into 15 ml tubes. […] Immunoblotting were performed as described previously. The following antibodies were used: anti-phospho-ERK, ERK, Phospho-VEGFR1, phospho-CRAF, CRAF, PCNA, HSP90 and Rab11.
Cells were harvested for immunoblotting of antibodies to pERK (short expression), pERK, ERK, pCRAF (S338), CRAF, and Rab11 as shown in FIG. 11A. An ELISA assay was performed to determine the activation of RAS in 3 macrophage donors and the melanoma cells A375 and 1205Lu. As see in FIG. 11B, macrophages have high basal level of RAS activation.

1205Lu [8] = assay: Western blot for cPARP in 1205Lu cells; format: cell-based, human; conditions: PLX4720 1, 3, 10 μM, 2 days, with or without macrophages
[9] = system: VEGF production in macrophages; assay: Intracellular staining for VEGF production in macrophages; conditions: 4 hours

COc1cc2nccc(Oc3ccc(NC(=O)NC4CC4)c(Cl)c3)c2cc1C(N)=O [Lenbatinib]
macrophage-mediated resistance of melanoma cells to BRAFi (cell growth, anti-cell death effect) [1]: reverse macrophage-mediated resistance

VEGF
rescue of PLX4720-induced cell growth inhibition ([2]; VEGF 10 ng/ml with PLX4720, 3 days): rescued PLX4720-induced cell growth inhibition | MAPK pathway in melanoma cells [3]: activated the MAPK pathway

CC(C)(C)c1nc(-c2cccc(NS(=O)(=O)c3c(F)cccc3F)c2F)c(-c2ccnc(N)n2)s1 [Dabrafenib]
macrophage apoptosis / cell death (macrophages): protects macrophage from cell death

m-CSFR: soluble M-CSFR
expression of pERK, pAKT, pS6, pRSK90 (Western blot) (1205Lu [4]): no change from control

COc1ccc(COc2ccc(Cc3cnc(N)nc3N)cc2OC)cc1 [GW2580, 5-(3-methoxy-40((4-methoxybenzyl)oxy)benzyl)pyrimidine-2,4-diamine]
efficacy compared with PLX4720 alone (1205Lu xenograft; 14 days, GW2580 160 mg/kg vs PLX4720): less efficacious than PLX4720 | tumor size / tumor growth (1205Lu xenograft; after 14 days of oral treatment, GW2580 160 mg/kg, PLX4720 30 mg/ml as printed): significantly decreased tumor size | effect on anti-tumor activity of PLX4720 on 1205Lu xenograft tumor growth (FIG. 12A) (1205Lu xenograft; oral, 14 days): increases anti-tumor activity of PLX4720 | numbers of peritoneal F4/80 positive macrophages [5]: significant decrease | Ki67 positive cells in tumor tissues [6]: fewer | signaling of phospho-ERK in tumor tissues [6]: decreased signaling | F4/80 positive macrophages in tumors [6]: abolished | melanoma growth and death in vitro ([2]; GW2580 alone, 72 hours): did not have significant effects | macrophage-mediated resistance of melanoma cells to BRAFi (cell growth, anti-cell death effect) [1]: can reverse macrophage-mediated resistance | expression of pERK, pAKT, pS6, pRSK90 (Western blot) (1205Lu [4]): all blots appear similar to col. 4

CNC(=O)[C@H](Cc1c[nH]c2ccccc12)NC(=O)[C@@H](CC(=O)NO)CC(C)C [GM6001]
1205Lu-MΦ supernatant induced melanoma invasion (1205Lu melanoma cells; GM6001 10 μM, Matrigel Transwell): did not have a significant effect | melanoma cell invasion (FIG. 7) (1205Lu melanoma cells; MMPi 5 μM, 18 h, 1205Lu-MΦ CM): marginally increased melanoma cell invasion

CCCS(=O)(=O)Nc1ccc(F)c(C(=O)c2c[nH]c3ncc(Cl)cc23)c1F [PLX4720]
numbers of peritoneal F4/80 positive macrophages [5]: amplified this effect | Ki67 positive cells in tumor tissues [6]: fewer | signaling of phospho-ERK in tumor tissues [6]: decreased signaling | F4/80 positive macrophages in tumors [6]: significant decrease | BRAFi-induced growth inhibition and cell death of melanoma cells when co-cultured with macrophages ([1]; 0-10 μM, 3 days, 1205Lu, A375, SK-MEL-28, 451Lu): significantly protected from PLX4720-induced growth inhibition and cell death | macrophage apoptosis / cell death (macrophages): protects macrophage from apoptosis | MAPK signaling in macrophages [7]: strongly activated | cPARP gel (Western blot) (1205Lu [8]): showed a second blot | production of VEGF in macrophages [9]: significantly increased
